In publication PMC10238102, “Anti-SARS-CoV-2 Activity of Adamantanes In Vitro and in Animal Models of Infection” (COVID, 2022):
“Also recorded” adds a separate entry of the source. Like-named read-outs stand apart in the source and are kept apart here.

Columns and labels:
icSARS-CoV-2-mNG [1] = test: microbe, parasite or virus in culture; assay type: cell-based, SARS-CoV-2
ACE2-A549 cells [2] = test: CellTiter-Glo cell viability assay in ACE2-A549 cells
SARS-CoV-2 WA/01 [3] = test: SARS-CoV-2 WA/01 immunostaining assay in ACE2-A549 cells; assay type: cell-based; settings: MOI 0.1, anti-spike staining, 3 DPI (Figure 2A)
in vitro = settings: human
[4] = Cell viability (CC50) in Vero E6-TMPRSS2-T2A-ACE2 cells; assay type: cell-based; settings: African green monkey, Vero E6 T/A cells, Figure 3
[5] = tested on: Influenza A/Hong Kong/8/68 (H3N2); test: microbe, parasite or virus in culture; assay type: cell-based
[6] = cited from earlier work
SARS-CoV-2 ORF10 = tested on: SARS-CoV-2 ORF10; parameters: method as in PMID 34893762; settings: expressed in X. laevis oocytes; cited from earlier work
SARS-CoV-2 protein E = tested on: SARS-CoV-2 protein E; parameters: method as in PMID 34893762; settings: expressed in X. laevis oocytes; cited from earlier work
SARS-CoV-2 WA/01 [7] = test: Golden Syrian hamster infection model, lung virus titer by plaque assay; assay type: in vivo, golden Syrian hamsters; settings: 60 mg/kg i.p. every 12 h from 24 h before infection, 4 DPI
Experimental: The golden Syrian hamster experiment was performed by Dr. Anthony Griffith’s team at the Boston University School of Medicine. Adult hamsters (3 males and 3 females per group) were administered with antiviral compounds i.p. starting 24 h prior to infection until completion of the study. Hamsters were infected with SARS-CoV-2 WA/01 i.n. (4 × 10^4 PFU in 100 μL). At 4 DPI, hamsters underwent euthanasia and their lungs were collected to perform plaque assays to measure virus titer in the tissues. Lung tissue from each hamster was stored at −80 °C prior to titer. Tissues were removed from −80 °C and thawed at 4 °C before being weighed and cut to a weight ≤100 mg. Each tissue sample was then homogenized using a TissueLyser II (Qiagen, Germantown, MD, USA) in a final volume of 1 mL using DMEM/2% FBS/antibiotic-antimycotic (Gibco™). Each tissue homogenate was then diluted and 200 μL of each dilution or control was added to confluent monolayers of Vero E6 cells in duplicate and incubated for 1 h at 37 °C and 5% CO2. The plates were gently rocked every 5–10 min to prevent monolayer drying. […]

icSARS-CoV-2-mNG [8] = test: microbe, parasite or virus in culture; assay type: cell-based, SARS-CoV-2; settings: Severe acute respiratory syndrome coronavirus 2, read-out: IC50 (virus titer by plaque assay)
SARS-CoV-2 [9] = settings: obtained by Zhou et al.; cited from earlier work
SARS-CoV-2 [10] = test: Summary of in vitro assays in human lung epithelial cells expressing ACE2; assay type: cell-based; settings: Severe acute respiratory syndrome coronavirus 2, Epithelial cell, read-out: IC50 values (summary range)
SARS-CoV-2 WA/01 [11] = test: SARS-CoV-2 WA/01 antiviral assay in Vero E6 cells; assay type: cell-based; settings: Severe acute respiratory syndrome coronavirus 2, Vero C1008, strain WA/01
[12] = cited from earlier work; remark: listed apart in the source
[13] = CellTiter-Glo cell viability assay in ACE2-A549 cells; settings: human
[14] = Body weight and deaths of treated, infected BALB/c mice; settings: 60 mg/kg i.n. every 12 h, n = 6 mice per group
ACE2-A549 cells [15] = settings: human
[16] = Severe acute respiratory syndrome coronavirus 2
[17] = Severe acute respiratory syndrome coronavirus 2, ACE2-A549 cells

## O=c1nc(NO)ccn1[C@@H]1O[C@H](CO)[C@@H](O)[C@H]1O [EIDD-1931]
icSARS-CoV-2-mNG [1]; read-out: IC50
  IC50: 1.5 µM
ACE2-A549 cells [2]; Figure 1A
  CC50: 130 µM
ACE2-A549 cells [2]; Figure 2A
  CC50: 100 µM
SARS-CoV-2 WA/01 [3]; ACE2-A549 cells, read-out: IC50
  IC50: 0.36 µM

## NC12CC3CC(CC(C3)C1)C2 [amantadine]
icSARS-CoV-2-mNG [1]
  IC50: 120 µM
icSARS-CoV-2-mNG [1]; [16]
  IC50: 120 µM
In vitro
  CC50: ≥ 1000 µM
[4]
  CC50 at 48 h: ≥ 1000 µM
[5]
  IC50: 0.46 µM
SARS-CoV-2 WA/01 [3]; [17]
  IC50: 136 µM
[6]; read-out: Cmax plasma level, mice, single-dose i.p. injection of 60 mg/kg
  Cmax: 47 µM
SARS-CoV-2 ORF10
  channel activity of ORF10: decreased channel activities
SARS-CoV-2 protein E
  channel activity of protein E: decreased channel activities
SARS-CoV-2 WA/01 [7]
  lung virus titer vs no-drug control: did not significantly inhibit
icSARS-CoV-2-mNG [8]
  IC50: 34.6 µM
SARS-CoV-2 [9]
  IC50: 116 µM
SARS-CoV-2 [10]
  IC50: 120 to 130 µM
SARS-CoV-2 WA/01 [11]
  IC50: 413 µM
[12]; after single 200-mg doses
  ratio of nasal mucus to plasma concentration, compared with rimantadine: about two-fold higher
[12]; autopsy lung tissue from an infant
  concentration in autopsy lung tissue relative to serum concentration: 14 times
[12]; multiple dose, 258 mg extended-release tablet once daily
  Cmax: 4.16 µM

## NC(N)=NC(=O)c1nc(Cl)c(N2CCCCCC2)nc1N [hexamethylene-amiloride]
SARS-CoV-2 ORF10
  channel activity of ORF10: decreased channel activities
SARS-CoV-2 protein E
  channel activity of protein E: decreased channel activities

## CCC(CC)COC(=O)[C@H](C)N[P@](=O)(OC[C@H]1O[C@@](C#N)(c2ccc3c(N)ncnn23)[C@H](O)[C@@H]1O)Oc1ccccc1 [remdesivir]
icSARS-CoV-2-mNG [1]; [16]
  IC50: 0.08 µM
[4]
  CC50 at 48 h: ≥ 10 µM
[13]
  CC50: ≥ 3 µM
SARS-CoV-2 WA/01 [3]; [17]
  IC50: 0.04 µM

## CC(N)C12CC3CC(CC(C3)C1)C2 (centres unmarked) [rimantadine]
icSARS-CoV-2-mNG [1]
  IC50: 29.8 µM
icSARS-CoV-2-mNG [1]; [16]
  IC50: 30 µM
In vitro
  CC50: ≥ 300 µM
[4]
  CC50 at 48 h: ≥ 300 µM
[5]
  IC50: 0.05 µM
SARS-CoV-2 WA/01 [3]; [17]
  IC50: 34 µM
[14]
  mice found dead within 1 DPI: Two
[6]; mouse, in vivo, po, 40 mg/kg
  Cmax: 9.3 µM
SARS-CoV-2 protein E
  channel activity of protein E: not reported to be inhibited
SARS-CoV-2 WA/01 [7]
  lung virus titer vs no-drug control: modestly but significantly inhibited; also recorded: mild but significant antiviral effect
icSARS-CoV-2-mNG [8]
  IC50: 12.6 µM
SARS-CoV-2 [9]
  IC50: 36 µM
SARS-CoV-2 [10]
  IC50: 30 to 40 µM
SARS-CoV-2 WA/01 [11]
  IC50: 121 µM
[12]; in vivo, 100 mg
  Cmax: 0.54 to 2.17 µM

## CN(C)CCOCC(=O)NC12CC3CC(CC(C3)C1)C2 [tromantadine]
icSARS-CoV-2-mNG [1]
  IC50: 97.6 µM
icSARS-CoV-2-mNG [1]; [16]
  IC50: 98 µM
In vitro
  CC50: 312 µM
[5]
  IC50: 94.2 µM
SARS-CoV-2 WA/01 [3]; [17]
  IC50: 56 µM
ACE2-A549 cells [15]
  CC50: 305 µM
icSARS-CoV-2-mNG [8]
  IC50: 88.9 µM
SARS-CoV-2 [10]
  IC50: 60 to 100 µM
